Reference: the supplement of paper PMC10307832

Columns and labels:
Test in all cases: relative viability (nuclei count vs DMSO), 5 days (fraction); higher = more cells survive
[1] = tested on: ABC-1
Method in brief: (§1)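 Each reported value is a median over duplicate plates. It expresses relative viability: treated-well nuclei count divided by vehicle-well nuclei count. Lung cancer cell lines in 1536-well plates were dosed by pin tool a day after seeding, alone with one drug or with a fixed anchor-drug dose plus five library-drug doses (not always all listed) in √10 steps, and nuclei were counted after 5 days.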

[2] = tested on: COR-L23
Method in brief: as §1

[3] = tested on: H3255
Method in brief: as §1

[4] = tested on: HCC-15
Method in brief: as §1

[5] = tested on: HCC-366
Method in brief: as §1

[6] = tested on: HCC-827
Method in brief: as §1

[7] = tested on: LC-2-ad
Method in brief: as §1

[8] = tested on: LCLC-103H
Method in brief: as §1

[9] = tested on: LXF-289
Method in brief: as §1

[10] = tested on: NCI-H1437
Method in brief: as §1

[11] = tested on: NCI-H1666
Method in brief: as §1

[12] = tested on: NCI-H1975
Method in brief: as §1

[13] = tested on: NCI-H2009
Method in brief: as §1

[14] = tested on: NCI-H2085
Method in brief: as §1

[15] = tested on: NCI-H2087
Method in brief: as §1

[16] = tested on: NCI-H2228
Method in brief: as §1

[17] = tested on: NCI-H2342
Method in brief: as §1

[18] = tested on: NCI-H23
Method in brief: as §1

[19] = tested on: NCI-H661
Method in brief: as §1

[20] = tested on: PC-14
Method in brief: as §1

[21] = tested on: PC-3 [JPC-3]
Method in brief: as §1

[22] = tested on: SK-MES-1
Method in brief: as §1

[23] = tested on: UMC-11
Method in brief: as §1

What does the source list for CCNC(=O)c1noc(-c2cc(C(C)C)c(O)cc2O)c1-c1ccc(CN2CCOCC2)cc1 [Luminespib] + Cc1cc(Nc2cc(N3CCN(C)CC3)nc(Sc3ccc(NC(=O)C4CC4)cc3)n2)n[nH]1 [Tozasertib] (partner 0.1 µM)?
relative viability ([1]; first compound 0.002 µM): 0.196; relative viability ([1]; first compound 0.006325 µM): 0.21; relative viability ([1]; first compound 0.02 µM): 0.139; relative viability ([1]; first compound 0.06325 µM): 0.173; relative viability ([1]; first compound 0.2 µM): 0.14; relative viability ([2]; first compound 0.002 µM): 0.237; relative viability ([2]; first compound 0.006325 µM): 0.192; relative viability ([2]; first compound 0.02 µM): 0.272; relative viability ([2]; first compound 0.06325 µM): 0.0698; relative viability ([2]; first compound 0.2 µM): 0.0682; relative viability ([3]; first compound 0.002 µM): 0.7; relative viability ([3]; first compound 0.006325 µM): 0.69; relative viability ([3]; first compound 0.06325 µM): 0.7; relative viability ([3]; first compound 0.2 µM): 0.25; relative viability ([4]; first compound 0.002 µM): 0.466; relative viability ([4]; first compound 0.006325 µM): 0.441; relative viability ([4]; first compound 0.02 µM): 0.444; relative viability ([4]; first compound 0.06325 µM): 0.173; relative viability ([4]; first compound 0.2 µM): 0.0953; relative viability ([5]; first compound 0.002 µM): 0.13; relative viability ([5]; first compound 0.006325 µM): 0.105; relative viability ([5]; first compound 0.02 µM): 0.108; relative viability ([5]; first compound 0.06325 µM): 0.228; relative viability ([5]; first compound 0.2 µM): 0.0502; relative viability ([6]; first compound 0.002 µM): 0.425; relative viability ([6]; first compound 0.006325 µM): 0.465; relative viability ([6]; first compound 0.02 µM): 0.398; relative viability ([6]; first compound 0.06325 µM): 0.41; relative viability ([6]; first compound 0.2 µM): 0.193; relative viability ([7]; first compound 0.002 µM): 0.482; relative viability ([7]; first compound 0.006325 µM): 0.493; relative viability ([7]; first compound 0.02 µM): 0.414; relative viability ([7]; first compound 0.06325 µM): 0.258; relative viability ([7]; first compound 0.2 µM): 0.251; relative viability ([8]; first compound 0.002 µM): 0.47; relative viability ([8]; first compound 0.006325 µM): 0.455; relative viability ([8]; first compound 0.02 µM): 0.44; relative viability ([8]; first compound 0.06325 µM): 0.497; relative viability ([8]; first compound 0.2 µM): 0.308; relative viability ([9]; first compound 0.002 µM): 0.225; relative viability ([9]; first compound 0.006325 µM): 0.216; relative viability ([9]; first compound 0.02 µM): 0.222; relative viability ([9]; first compound 0.06325 µM): 0.141; relative viability ([9]; first compound 0.2 µM): 0.0935; relative viability ([10]; first compound 0.002 µM): 0.385; relative viability ([10]; first compound 0.006325 µM): 0.359; relative viability ([10]; first compound 0.02 µM): 0.497; relative viability ([10]; first compound 0.06325 µM): 0.508; relative viability ([10]; first compound 0.2 µM): 0.238; relative viability ([11]; first compound 0.002 µM): 0.64; relative viability ([11]; first compound 0.006325 µM): 0.583; relative viability ([11]; first compound 0.02 µM): 0.601; relative viability ([11]; first compound 0.06325 µM): 0.732; relative viability ([11]; first compound 0.2 µM): 0.538; relative viability ([12]; first compound 0.002 µM): 0.759; relative viability ([12]; first compound 0.006325 µM): 0.745; relative viability ([12]; first compound 0.02 µM): 0.603; relative viability ([12]; first compound 0.06325 µM): 0.1; relative viability ([12]; first compound 0.2 µM): 0.093; relative viability ([13]; first compound 0.002 µM): 0.766; relative viability ([13]; first compound 0.006325 µM): 0.746; relative viability ([13]; first compound 0.02 µM): 0.798; relative viability ([13]; first compound 0.06325 µM): 0.28; relative viability ([13]; first compound 0.2 µM): 0.114; relative viability ([14]; first compound 0.002 µM): 0.804; relative viability ([14]; first compound 0.006325 µM): 0.749; relative viability ([14]; first compound 0.02 µM): 0.758; relative viability ([14]; first compound 0.06325 µM): 0.879; relative viability ([14]; first compound 0.2 µM): 0.607; relative viability ([15]; first compound 0.002 µM): 0.26; relative viability ([15]; first compound 0.006325 µM): 0.29; relative viability ([15]; first compound 0.02 µM): 0.243; relative viability ([15]; first compound 0.06325 µM): 0.113; relative viability ([15]; first compound 0.2 µM): 0.0985; relative viability ([16]; first compound 0.002 µM): 0.353; relative viability ([16]; first compound 0.006325 µM): 0.274; relative viability ([16]; first compound 0.02 µM): 0.139; relative viability ([16]; first compound 0.06325 µM): 0.101; relative viability ([16]; first compound 0.2 µM): 0.136; relative viability ([17]; first compound 0.002 µM): 0.578; relative viability ([17]; first compound 0.006325 µM): 0.576; relative viability ([17]; first compound 0.02 µM): 0.361; relative viability ([17]; first compound 0.06325 µM): 0.589; relative viability ([17]; first compound 0.2 µM): 0.334; relative viability ([18]; first compound 0.002 µM): 0.333; relative viability ([18]; first compound 0.006325 µM): 0.351; relative viability ([18]; first compound 0.02 µM): 0.345; relative viability ([18]; first compound 0.06325 µM): 0.279; relative viability ([18]; first compound 0.2 µM): 0.229; relative viability ([19]; first compound 0.002 µM): 0.352; relative viability ([19]; first compound 0.006325 µM): 0.358; relative viability ([19]; first compound 0.02 µM): 0.348; relative viability ([19]; first compound 0.06325 µM): 0.357; relative viability ([19]; first compound 0.2 µM): 0.292; relative viability ([20]; first compound 0.002 µM): 0.567; relative viability ([20]; first compound 0.006325 µM): 0.547; relative viability ([20]; first compound 0.02 µM): 0.326; relative viability ([20]; first compound 0.06325 µM): 0.0498; relative viability ([20]; first compound 0.2 µM): 0.0697; relative viability ([21]; first compound 0.002 µM): 0.892; relative viability ([21]; first compound 0.006325 µM): 0.845; relative viability ([21]; first compound 0.02 µM): 0.801; relative viability ([21]; first compound 0.06325 µM): 0.656; relative viability ([21]; first compound 0.2 µM): 0.375; relative viability ([22]; first compound 0.002 µM): 0.822; relative viability ([22]; first compound 0.006325 µM): 0.849; relative viability ([22]; first compound 0.02 µM): 1.01; relative viability ([22]; first compound 0.06325 µM): 0.144; relative viability ([22]; first compound 0.2 µM): 0.159; relative viability ([23]; first compound 0.002 µM): 0.211; relative viability ([23]; first compound 0.006325 µM): 0.191; relative viability ([23]; first compound 0.02 µM): 0.194; relative viability ([23]; first compound 0.06325 µM): 0.242; relative viability ([23]; first compound 0.2 µM): 0.196
